Some results are limits rather than exact numbers.

The assay in a line: Inhibition of West Nile virus NS2B-NS3 serine protease using Pyr-RTKR-AMC as substrate incubated for 1 hr prior to substrate addition measured every 45 secs for 1 hr by fluorescence assay.
`Cc1cccc(CC(=O)N[C@@H](CCCCN)C(=O)N[C@@H](CCCCN)C(=O)NCCCCNC(=N)N)c1` came in with a half-maximal inhibitory concentration (IC50) of 9.2 µM.
As to `N=C(N)NCCCCNC(=O)[C@H](CCCCN)NC(=O)[C@H](Cc1ccccc1)NCC(=O)c1ccc(-c2ccccc2)cc1`, half-maximal inhibition (IC50) was put at 44.5 µM.
In the case of `N=C(N)NCCCCNC(=O)[C@H](CCCCN)NC(=O)[C@H](CCCCN)NC(=O)Cc1ccc(Cl)cc1` it was 4.8 µM.
In the case of `CC(C)[C@H](NCC(=O)c1ccc(-c2ccccc2)cc1)C(=O)N[C@@H](CCCCN)C(=O)NCCCCNC(=N)N` it was more than 100 µM.
The same measure for `CC(C)(C)C(=O)N[C@@H](CCCCN)C(=O)N[C@@H](CCCCN)C(=O)NCCCCNC(=N)N`: 27.1 µM; for `N=C(N)NCCCCNC(=O)[C@H](CCCCN)NC(=O)[C@H](CCCCN)NC(=O)Cc1cccc(Cl)c1`: 9.6 µM; for `CC(C)C[C@H](NCC(=O)c1ccc(-c2ccccc2)cc1)C(=O)N[C@@H](CCCCN)C(=O)NCCCCNC(=N)N`: more than 100 µM.
Regarding `N=C(N)NCCCCNC(=O)[C@H](CCCCN)NC(=O)[C@H](CCCCN)NC(=O)CCCc1ccccc1`, the concentration for half-maximal inhibition (IC50) came to 11.2 µM.
In the case of `CC(=O)N[C@@H](CCCCN)C(=O)NCCCCNC(=N)N` it was more than 100 µM; in that of `N=C(N)NCCCCNC(=O)[C@H](CCCCN)NC(=O)[C@H](CCCNC(=N)N)NCC(=O)c1ccc(-c2ccccc2)cc1`, 19.1 µM; in that of `N=C(N)NCCCCNC(=O)[C@H](CCCCN)NC(=O)[C@H](CCC(=O)O)NCC(=O)c1ccc(-c2ccccc2)cc1`, more than 100 µM.
Compound `N=C(N)NCCCCNC(=O)[C@H](CCCCN)NC(=O)[C@@H](N)CCCCN` gave a concentration for half-maximal inhibition (IC50) of 38.2 µM.
The same measure for `N=C(N)NCCCCNC(=O)[C@H](CCCCN)NC(=O)[C@H](CO)NCC(=O)c1ccc(-c2ccccc2)cc1`: more than 100 µM; for `N=C(N)NCCCCNC(=O)[C@H](CCCCN)NC(=O)[C@@H](CCCCN)NCC(=O)c1ccc(-c2ccccc2)cc1`: more than 100 µM; for `N=C(N)NCCCCNC(=O)[C@H](CCCCN)NC(=O)[C@H](CCCCN)NC(=O)CCc1ccccc1`: 42.2 µM.
In the case of `N=C(N)NCCCCNC(=O)[C@H](CCCCN)NC(=O)[C@H](CCCCN)NC(=O)Cc1ccccc1Cl` it was 2.6 µM; in that of `N=C(N)NCCCCNC(=O)[C@H](CCCCN)NC(=O)[C@H](CCCCN)NC(=O)c1ccccc1`, 38.6 µM; in that of `N=C(N)NCCCCNC(=O)[C@H](CCCCN)NC(=O)[C@H](CCCCN)NC(=O)c1cccc2ccccc12`, 33.3 µM.
The same measure for `CC(C)C(=O)N[C@@H](CCCCN)C(=O)N[C@@H](CCCCN)C(=O)NCCCCNC(=N)N`: 23.8 µM; for `Cc1ccccc1CC(=O)N[C@@H](CCCCN)C(=O)N[C@@H](CCCCN)C(=O)NCCCCNC(=N)N`: 6.8 µM; for `N=C(N)NCCCCNC(=O)[C@H](CCCCN)NC(=O)CNCC(=O)c1ccc(-c2ccccc2)cc1`: more than 100 µM.
`N=C(N)NCCCCNC(=O)[C@H](CCCCN)NC(=O)[C@H](Cc1ccc(O)cc1)NCC(=O)c1ccc(-c2ccccc2)cc1` gave an IC50 of 33.5 µM.
As for `Cc1ccc(CC(=O)N[C@@H](CCCCN)C(=O)N[C@@H](CCCCN)C(=O)NCCCCNC(=N)N)cc1`, half-maximal inhibition (IC50) was put at 6.9 µM.
The same measure for `N=C(N)NCCCCNC(=O)[C@H](CCCCN)NC(=O)[C@H](CC(=O)O)NCC(=O)c1ccc(-c2ccccc2)cc1`: more than 100 µM.
In the case of `N=C(N)NCCCCNC(=O)[C@H](CCCCN)NC(=O)[C@H](CCCCN)NC(=O)c1ccc2ccccc2c1` it was 32.5 µM.
In the case of `CC(=O)N[C@@H](CCCCN)C(=O)N[C@@H](CCCCN)C(=O)NCCCCNC(=N)N` it was 18.2 µM.
The compound `CCC(=O)N[C@@H](CCCCN)C(=O)N[C@@H](CCCCN)C(=O)NCCCCNC(=N)N` came in with an IC50 of 19.1 µM.
The same measure for `N=C(N)NCCCCNC(=O)[C@H](CCCCN)NC(=O)[C@H](CC(N)=O)NCC(=O)c1ccc(-c2ccccc2)cc1`: more than 100 µM; for `C[C@H](NCC(=O)c1ccc(-c2ccccc2)cc1)C(=O)N[C@@H](CCCCN)C(=O)NCCCCNC(=N)N`: 53.7 µM.
In the case of `CCCC[C@H](NCC(=O)c1ccc(-c2ccccc2)cc1)C(=O)N[C@@H](CCCCN)C(=O)NCCCCNC(=N)N` it was 47.9 µM; in that of `N=C(N)NCCCCNC(=O)[C@H](CCCCN)NC(=O)[C@H](CCCCN)NC(=O)Cc1ccccc1`, 8.5 µM.
In the case of `N=C(N)NCCCCNC(=O)[C@H](CCCCN)NC(=O)[C@H](CCC(N)=O)NCC(=O)c1ccc(-c2ccccc2)cc1` it was more than 100 µM.
The compound `CC(C)CC(=O)N[C@@H](CCCCN)C(=O)N[C@@H](CCCCN)C(=O)NCCCCNC(=N)N` displayed an IC50 of 19.2 µM.
In the case of `N=C(N)NCCCCNC(=O)[C@H](CCCCN)NC(=O)[C@H](Cc1cnc[nH]1)NCC(=O)c1ccc(-c2ccccc2)cc1` it was more than 100 µM.
The same measure for `N=C(N)NCCCCNC(=O)[C@H](CCCCN)NC(=O)[C@H](CCCCN)NCC(=O)c1ccc(-c2ccccc2)cc1`: 4.7 µM.
In the case of `N=C(N)NCCCCNC(=O)[C@H](CCCCN)NC(=O)[C@H](CCCCN)NC(=O)Cc1cccc(-c2ccccc2)c1` it was 9.9 µM; in that of `CCCC(=O)N[C@@H](CCCCN)C(=O)N[C@@H](CCCCN)C(=O)NCCCCNC(=N)N`, 18.5 µM; in that of `N=C(N)NCCCCNC(=O)[C@H](CCCCN)NC(=O)[C@@H]1CCCN1CC(=O)c1ccc(-c2ccccc2)cc1`, more than 100 µM.
